{"source": "patent US8183364B2", "about": "“Substituted porphyrins” (Duke University, priority 2004, dated 2012)", "key": {"[1]": {"assay": "Electrochemistry: cyclic voltammetry of the Mn(III)/Mn(II) redox couple", "type": "physicochemical", "details": "for Metal-centered redox potential E1/2: Mn(III)/Mn(II), 0.1 M NaCl, 0.05 M phosphate buffer, pH 7.8, ±3 mV"}, "[2]": {"assay": "Kinetic salt effect on O2.^− dismutation by cytochrome c assay", "type": "biochemical", "details": "0.05 M phosphate buffer, pH 7.8, 0-0.4 M NaCl", "procedure": "Kinetic salt effect. The dependence of the catalytic rate constant for the O2.^− dismutation upon ionic strength was determined by cytochrome c assay (McCord and Fridovich, J. Biol. Chem. 244:6049 (1969)) in 0.05 M phosphate buffer, pH 7.8 with NaCl ranging from 0 to 0.4 M. In doing this, the effect of ionic strength on the rate of the O2.^−/cytochrome c reaction was corrected for.\nKinetic salt effect. The effect of the ionic strength (μ) on the catalytic rate constant was assessed using eq which is based on Debye-Huckel relation (Hambright et al, J. Porphyrins Phthalocyanines 7:139-146 (2003)) for the effect of the ionic strength of the solution on the activity coefficient of an ion. log k=log kref+2AzAzBμ^1/2/(1+μ^1/2) The k is the rate constant at any given ionic strength, while kref is the rate constant at μ=0. The A is a collection of physical constants with a value of 0.509 and zA and zB are the charges of the reacting species. The equation predicts a linear plot of log k vs μ^1/2/(1+μ^1/2). Eq assumes a coefficient of 1.0 (βai) for μ^1/2 in the denominator, i.e., the distance of the closest approach, ai to be 3 A and β is a physical constant, […]. It is doubtful whether great significance can be attributed to the ai, thus to the product zAzB (Hambright et al, J. Porphyrins Phthalocyanines 7:139-146 (2003)), especially so in the light of the bulkiness, high charge and solvation shell of the metalloporphyrins. Accounting for the mono- and diprotonated phosphates as the major species at pH 7.8 (pKa=7.2), and the concentration of the NaCl, the ionic strength was calculated using equation μ=½ Σ mizi^2 where mi is the molality and zi the charge of the given ion.\nThe slopes of the plots are −6.48 (MnTE-2-PyP^5+), −7.02 (MnTMOE-2-PyP^5+), −7.38 (MnTDMOE-2-ImP^5+), and −4.15 (MnTnBu-2-PyP^5+). As expected (Hambright et al, J. Porphyrins Phthalocyanines 7:139-146 (2003)), when the reactants are ions of opposite charges, the higher the ionic strength of the solution the lower the rate constants, i.e. the slopes are negative. The slopes of the plots indicate clearly the impact of the local dielectric constant on the kcat. The kcat of the most lipophilic compound, MnTnBu-2-PyP^5+ is 40% less sensitive to the changes in ionic strength of the solution than is the kcat of its methoxyethyl analogue, MnTMOE-2-PyP^5+."}, "[3]": {"assay": "Oxidative degradation in the presence of ascorbic acid under aerobic conditions", "type": "physicochemical", "details": "pH 7.8 (0.05 M tris buffer)", "procedure,_shortened": "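Mn porphyrins exposed to ascorbic acid under aerobic conditions; percentage of porphyrin degraded within 2 hours recorded.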"}, "[4]": {"assay": "Thin-layer chromatography on silica gel (retention factor Rf, lipophilicity)", "type": "physicochemical", "details": "silica gel TLC, KNO3-saturated H2O/H2O/acetonitrile = 1/1/8; for Rf (compound path/solvent path), metal-free porphyrin (in parenthesis): metal-free ligand of the named Mn porphyrin", "procedure": "Uv/vis spectra of porphyrin ligands and their Mn complexes were taken on a Shimadzu UV-2501-PC spectrophotometer at 25° C. Thin-layer chromatography of ligands and Mn complexes was done using silica gel plates with KNO3satH2O/H2O/acetonitrile=1/1/8.\nThin-layer chromatography. All new methoxyporphyrins are more lipophilic than MnTE-2-PyP^5+ and MnTDE-2-ImP^5+."}}}
{"smiles": "COCC[n+]1ccccc1-c1c2nc(c(-c3cccc[n+]3CCOC)c3ccc([n-]3)c(-c3cccc[n+]3CCOC)c3nc(c(-c4cccc[n+]4CCOC)c4ccc1[n-]4)C=C3)C=C2.[Mn+3]", "note": "[MnTMOE-2-PyP^5+, Mn(III) tetrakis 5,10,15,20-tetrakis[N-(2-methoxyethyl)pyridinium-2-yl]porphyrin]", "values": [{"measurement": "Metal-centered redox potential E1/2", "setting": "[1]", "value": "+251 mV vs NHE"}, {"measurement": "E1/2 more positive / higher than that of MnTE-2-PyP^5+", "setting": "[1]; difference vs MnTE-2-PyP^5+ (+228 mV vs NHE)", "value": 23, "unit": "mV"}, {"measurement": "slope of log kcat vs μ^1/2/(1+μ^1/2)", "setting": "[2]", "value": "−7.02"}, {"measurement": "degradation within 2 hours", "setting": "[3]", "value": 24, "unit": "%"}, {"measurement": "Rf (compound path/solvent path), metal-free porphyrin (in parenthesis)", "setting": "[4]", "value": 0.18}, {"measurement": "Rf (compound path/solvent path), Mn complex", "setting": "[4]", "value": 0.16}]}
{"smiles": "COCCn1cc[n+](CCOC)c1-c1c2nc(c(-c3n(CCOC)cc[n+]3CCOC)c3ccc([n-]3)c(-c3n(CCOC)cc[n+]3CCOC)c3nc(c(-c4n(CCOC)cc[n+]4CCOC)c4ccc1[n-]4)C=C3)C=C2.[Mn+3]", "note": "[MnTDMOE-2-ImP^5+, Mn(III) tetrakis 5,10,15,20-tetrakis[N,N′-di(2-methoxyethyl)imidazolium-2-yl]porphyrin]", "values": [{"measurement": "Metal-centered redox potential E1/2", "setting": "[1]", "value": "+365 mV vs NHE"}, {"measurement": "slope of log kcat vs μ^1/2/(1+μ^1/2)", "setting": "[2]", "value": "−7.38"}, {"measurement": "degradation within 2 hours", "setting": "[3]", "value": 2, "unit": "%"}, {"measurement": "Rf (compound path/solvent path), metal-free porphyrin (in parenthesis)", "setting": "[4]", "value": 0.24}, {"measurement": "Rf (compound path/solvent path), Mn complex", "setting": "[4]", "value": 0.21}]}
